Where “and” joins values, the source holds several entries; their conditions need not be identical. Equal entries are not always repeated. Inconclusive results and toxic doses are left out.
System: L1210 leukemia ip in BDF1 mice, survival T/C
Experiment: NCI In Vivo Anticancer Drug Screen. Data for tumor model L1210 Leukemia (intraperitoneal) in B6D2F1 (BDF1) mice
Settings: endpoint: mean survival time, higher = longer survival
Method in brief: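 Mice bearing the transplanted tumor received compound or vehicle. Survival of the treated group was divided by that of the vehicle-treated control group to give the ratio.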

[1] = dose: 25.0 mg/kg/injection, schedule: Q04DX002 (ip), vehicle: saline
[2] = dose: 50.0 mg/kg/injection, schedule: Q04DX002 (ip), vehicle: saline
[3] = dose: 100.0 mg/kg/injection, schedule: Q01DX001 (ip), vehicle: saline
[4] = dose: 200.0 mg/kg/injection, schedule: Q01DX001 (ip), vehicle: saline
[5] = dose: 400.0 mg/kg/injection, schedule: Q01DX001 (ip), vehicle: saline
[6] = dose: 50.0 mg/kg/injection, schedule: Q01DX001 (ip), vehicle: Klucel (hydroxypropylcellulose) (HPC)
[7] = dose: 100.0 mg/kg/injection, schedule: Q04DX003 (ip), vehicle: saline
[8] = dose: 200.0 mg/kg/injection, schedule: Q04DX003 (ip), vehicle: saline
[9] = dose: 400.0 mg/kg/injection, schedule: Q04DX003 (ip), vehicle: saline
[10] = dose: 50.0 mg/kg/injection, schedule: Q01DX001 (ip), vehicle: carboxymethylcellulose (CMC)
[11] = dose: 100.0 mg/kg/injection, schedule: Q01DX001 (ip), vehicle: carboxymethylcellulose (CMC)
[12] = dose: 200.0 mg/kg/injection, schedule: Q01DX001 (ip), vehicle: carboxymethylcellulose (CMC)
[13] = dose: 400.0 mg/kg/injection, schedule: Q01DX001 (ip), vehicle: carboxymethylcellulose (CMC)
[14] = dose: 100.0 mg/kg/injection, schedule: Q01DX009 (ip), vehicle: saline
[15] = dose: 200.0 mg/kg/injection, schedule: Q01DX009 (ip), vehicle: saline
[16] = dose: 100.0 mg/kg/injection, schedule: Q01DX009 (ip), vehicle: other
[17] = dose: 200.0 mg/kg/injection, schedule: Q01DX009 (ip), vehicle: other
[18] = dose: 400.0 mg/kg/injection, schedule: Q01DX009 (ip), vehicle: other

## NC1C2CC3CC1CC(C2)O3 (configuration not stated)
[1]
  T/C: 103 % of control
[2]
  T/C: 106 % of control
dose: 100.0 mg/kg/injection, schedule: Q04DX002 (ip), vehicle: saline
  T/C: 106 % of control

## COc1ccc(/C=N/NC(=O)C[n+]2ccccc2)cc1
dose: 50.0 mg/kg/injection, schedule: Q01DX009 (ip), vehicle: saline with Tween-80
  T/C: 91 % of control
dose: 100.0 mg/kg/injection, schedule: Q01DX009 (ip), vehicle: saline with Tween-80
  T/C: 112 % of control
dose: 200.0 mg/kg/injection, schedule: Q01DX009 (ip), vehicle: saline with Tween-80
  T/C: 88 % of control

## Cc1cccc(C)c1Nc1cc(=O)[nH]c(=O)[nH]1
dose: 75.0 mg/kg/injection, schedule: Q01DX001 (ip), vehicle: saline with Tween-80
  T/C: 106 % of control
dose: 150.0 mg/kg/injection, schedule: Q01DX001 (ip), vehicle: saline with Tween-80
  T/C: 89 % of control
dose: 300.0 mg/kg/injection, schedule: Q01DX001 (ip), vehicle: saline with Tween-80
  T/C: 96 % of control

## NOCc1cscn1
[3]
  T/C: 98 % of control
[4]
  T/C: 101 % of control
[5]
  T/C: 101 % of control

## Nc1cc(C(=O)Nc2cccc(C3=NCCCN3)c2)ccc1C(=O)Nc1cccc(C2=NCCCN2)c1
dose: 0.17 mg/kg/injection, schedule: Q01DX Z (ip), vehicle: water
  T/C: 100 % of control
dose: 0.34 mg/kg/injection, schedule: Q01DX Z (ip), vehicle: water
  T/C: 90 % of control
dose: 0.68 mg/kg/injection, schedule: Q01DX Z (ip), vehicle: water
  T/C: 88 % of control

## Cc1csc[n+]1Cc1ccc([N+](=O)[O-])cc1
dose: 5.0 mg/kg/injection, schedule: Q01DX001 (ip), vehicle: saline
  T/C: 100 % of control
dose: 10.0 mg/kg/injection, schedule: Q01DX001 (ip), vehicle: saline
  T/C: 102 % of control
dose: 20.0 mg/kg/injection, schedule: Q01DX001 (ip), vehicle: saline
  T/C: 102 % of control
dose: 40.0 mg/kg/injection, schedule: Q01DX001 (ip), vehicle: saline
  T/C: 103 % of control
dose: 80.0 mg/kg/injection, schedule: Q01DX001 (ip), vehicle: saline
  T/C: 100 % of control
[3]
  T/C: 98 % of control

## COc1ccccc1N=Nc1c(O)n(-c2ccc(C)cc2)c(=S)n(-c2ccccc2)c1=O
[6]
  T/C: 94 % of control
dose: 100.0 mg/kg/injection, schedule: Q01DX001 (ip), vehicle: Klucel (hydroxypropylcellulose) (HPC)
  T/C: 87 % of control
dose: 200.0 mg/kg/injection, schedule: Q01DX001 (ip), vehicle: Klucel (hydroxypropylcellulose) (HPC)
  T/C: 89 % of control

## CC(OCCC#N)C(C)OCCC#N (configuration not stated)
dose: 44.0 mg/kg/injection, schedule: Q01DX001 (ip), vehicle: saline
  T/C: 93 % of control
dose: 45.0 mg/kg/injection, schedule: Q01DX001 (ip), vehicle: saline
  T/C: 102 % of control
dose: 50.0 mg/kg/injection, schedule: Q01DX001 (ip), vehicle: saline
  T/C: 98 % of control
dose: 67.0 mg/kg/injection, schedule: Q01DX001 (ip), vehicle: saline
  T/C: 96 % of control and 104 % of control
[3]
  T/C: 98 % of control and 101 % of control (2×)
dose: 150.0 mg/kg/injection, schedule: Q01DX001 (ip), vehicle: saline
  T/C: 101 % of control and 102 % of control
[4]
  T/C: 98 % of control
[5]
  T/C: 98 % of control

## COc1ccccc1OC
[7]
  T/C: 97 % of control
[8]
  T/C: 103 % of control
[9]
  T/C: 86 % of control

## CCOC(=O)C(Nc1ccc(SC)cc1)c1ccccc1 (configuration not stated)
[3]
  T/C: 110 % of control
[4]
  T/C: 98 % of control
[5]
  T/C: 98 % of control

## C(COC1CC2CC1C1C2CC2OC21)OC1CC2CC1C1C2CC2OC21 (configuration not stated)
[10]
  T/C: 96 % of control
[11]
  T/C: 98 % of control
[12]
  T/C: 96 % of control
[13]
  T/C: 102 % of control

## CCCCCCCC/C=C/CCCCCC1CCCC(C)N1 (configuration not stated)
dose: 6.25 mg/kg/injection, schedule: Q04DX002 (ip), vehicle: saline
  T/C: 96 % of control
dose: 12.5 mg/kg/injection, schedule: Q04DX002 (ip), vehicle: saline
  T/C: 96 % of control
[1]
  T/C: 111 % of control
[2]
  T/C: 90 % of control

## CC(=O)ONc1nc(C)c(CCC2OCCO2)c(SC(=N)N)n1
[14]
  T/C: 109 % of control
[7]
  T/C: 110 % of control
[15]
  T/C: 113 % of control
[8]
  T/C: 105 % of control
dose: 400.0 mg/kg/injection, schedule: Q01DX009 (ip), vehicle: saline
  T/C: 93 % of control
[9]
  T/C: 100 % of control

## O=C1c2cc([N+](=O)[O-])ccc2-c2cc(F)ccc21
[10]
  T/C: 104 % of control
[11]
  T/C: 95 % of control
[12]
  T/C: 93 % of control
[13]
  T/C: 90 % of control

## Cc1ccc(S(=O)(=O)Nc2ccccc2-c2nc3c(Cl)ccc(Cl)c3c(=O)o2)cc1
[16]
  T/C: 105 % of control
[7]
  T/C: 88 % of control
[17]
  T/C: 96 % of control
[8]
  T/C: 93 % of control
[18]
  T/C: 104 % of control
[9]
  T/C: 90 % of control

## O=C1CSC(=S)N1c1ccco1
[14]
  T/C: 102 % of control
[7]
  T/C: 93 % of control
[15]
  T/C: 102 % of control
[8]
  T/C: 88 % of control
[9]
  T/C: 93 % of control

## Nc1nc(N)c(CCCOc2ccc(NC(=O)CBr)cc2)c(N)n1
dose: 12.5 mg/kg/injection, schedule: Q01DX001 (ip), vehicle: Klucel (hydroxypropylcellulose) (HPC)
  T/C: 98 % of control
dose: 25.0 mg/kg/injection, schedule: Q01DX001 (ip), vehicle: Klucel (hydroxypropylcellulose) (HPC)
  T/C: 100 % of control
[6]
  T/C: 105 % of control

## COc1cc(N=Nc2ccc([N+](=O)[O-])cc2C)ccc1N
dose: 100.0 mg/kg/injection, schedule: Q01DX001 (ip), vehicle: other
  T/C: 97 % of control
dose: 200.0 mg/kg/injection, schedule: Q01DX001 (ip), vehicle: other
  T/C: 97 % of control
dose: 400.0 mg/kg/injection, schedule: Q01DX001 (ip), vehicle: other
  T/C: 86 % of control

## CN(Cc1cnc2nc(N)nc(N)c2n1)c1ccc(C(=O)NC(CCC(=O)O)C(=O)O)cc1[N+](=O)[O-] (configuration not stated)
dose: 2.5 mg/kg/injection, schedule: Q01DX009 (ip), vehicle: sodium bicarbonate
  T/C: 155 % of control
dose: 5.0 mg/kg/injection, schedule: Q01DX009 (ip), vehicle: sodium bicarbonate
  T/C: 112 % of control
dose: 10.0 mg/kg/injection, schedule: Q01DX009 (ip), vehicle: sodium bicarbonate
  T/C: 90 % of control

## O=C(Nc1ccc(C(=O)Nc2cc(S(=O)(=O)O)cc3cccc(S(=O)(=O)O)c23)cc1)Nc1ccc(C(=O)Nc2cc(S(=O)(=O)O)cc3cccc(S(=O)(=O)O)c23)cc1
dose: 37.5 mg/kg/injection, schedule: Q04DX003 (ip), vehicle: carboxymethylcellulose (CMC)
  T/C: 97 % of control
dose: 75.0 mg/kg/injection, schedule: Q01DX001 (ip), vehicle: carboxymethylcellulose (CMC)
  T/C: 93 % of control
dose: 75.0 mg/kg/injection, schedule: Q04DX003 (ip), vehicle: carboxymethylcellulose (CMC)
  T/C: 101 % of control
dose: 150.0 mg/kg/injection, schedule: Q01DX001 (ip), vehicle: carboxymethylcellulose (CMC)
  T/C: 105 % of control
dose: 150.0 mg/kg/injection, schedule: Q04DX003 (ip), vehicle: carboxymethylcellulose (CMC)
  T/C: 95 % of control

## Nc1ccccc1SC1CC(=O)N(c2ccc(I)cc2)C1=O (configuration not stated)
dose: 25.0 mg/kg/injection, schedule: Q04DX003 (ip), vehicle: other
  T/C: 88 % of control
dose: 50.0 mg/kg/injection, schedule: Q04DX003 (ip), vehicle: other
  T/C: 91 % of control
[16]
  T/C: 94 % of control
dose: 100.0 mg/kg/injection, schedule: Q04DX003 (ip), vehicle: other
  T/C: 93 % of control
[17]
  T/C: 102 % of control
[8]
  T/C: 88 % of control
[18]
  T/C: 93 % of control
[9]
  T/C: 86 % of control

## CCOC(=O)C(C)(C)CO
dose: 200.0 mg/kg/injection, schedule: Q04DX003 (ip), vehicle: saline sonified
  T/C: 103 % of control
dose: 400.0 mg/kg/injection, schedule: Q04DX003 (ip), vehicle: saline sonified
  T/C: 93 % of control
dose: 800.0 mg/kg/injection, schedule: Q04DX003 (ip), vehicle: saline sonified
  T/C: 101 % of control
